One data set relates to HCT 116. As to the kind of experiment: Antiproliferative activity assay (WST-8). The data set is classed as cell-based. The note with it: Homo sapiens, HCT-116, 96 h. On the procedure:
Antiproliferative activity assay was carried out as follows. A single suspension of tumor cells was inoculated to the serially diluted 96-well microtestplate. Then the testplate was incubated in the 5% CO2 ambience at 37° C. for 4 days (2-3×10^3 cells/well). The degree of cell growth in a monolayer was measured by using WST-8 (Dojindo, Japan). IC50 values of drugs against tumor cells were calculated as the concentration of drug yielding 50% OD of the control growth.

The nature of data set [1]: Maximum tolerated dose (MTD) by i.v. administration in mice. The note with it: mouse, in vivo, iv, read-out: maximum tolerated doses (MTD). On the procedure:
The maximum tolerated doses (MTD) of the following representative compounds
of the present invention were examined by i.v. administration in mice. The respective MTD values of the compounds were 14, 18, 10, 8, 8, 2 and 2 mg/kg.

The mark [2] stands for this setting: incubated 4 days, WST-8, concentration of drug yielding 50% OD of the control growth, read-out: HCT 116 IC50.

Like-named read-outs stand apart in the source and are kept apart here.

In the case of `CCSC(C(C)C(=O)NCCc1cccc(O)c1)C1CCCN1C(=O)CC(OC)C(C(C)CC)N(C)C(=O)C(NC(=O)C(C(C)C)N(C)C)C(C)C` (single isomer, unassigned) [N-(1-{[1-sec-Butyl-4-(2-{1-ethylsulfanyl-2-[2-(3-hydroxy-phenyl)-ethylcarbamoyl]-propyl}-pyrrolidin-1-yl)-2-methoxy-4-oxo-butyl]-methyl-carbamoyl}-2-methyl-propyl)-2-dimethylamino-3-methyl-butyramide], in the data set on HCT 116 (read-out: HCT 116 IC50 (nM)), the IC50 was 0.84 nM. Also, in data set [1], the MTD worked out at 2 mg/kg.

For the compound `CCC(C)C(C(CC(=O)N1CCCC1C(SC)C(C)C(=O)NCCc1cccc(O)c1)OC)N(C)C(=O)C(NC(=O)C(C(C)C)N(C)C)C(C)C` (single isomer, unassigned) [N-(1-{[1-sec-Butyl-4-(2-{2-[2-(3-hydroxy-phenyl)-ethylcarbamoyl]-1-methylsulfanyl-propyl}-pyrrolidin-1-yl)-2-methoxy-4-oxo-butyl]-methyl-carbamoyl}-2-methyl-propyl)-2-dimethylamino-3-methyl-butyramide], in the data set on HCT 116 (read-out: HCT 116 IC50 (nM)), the IC50 is 0.19 nM. Besides, the MTD in data set [1] was 2 mg/kg.

In the case of `CCSC(C(C)C(=O)N(C)CCc1cccc(O)c1)C1CCCN1C(=O)CC(OC)C(C(C)CC)N(C)C(=O)C(NC(=O)C(C(C)C)N(C)C)C(C)C` (single isomer, unassigned) [N-[1-({1-sec-Butyl-4-[2-(1-ethylsulfanyl-2-{[2-(3-hydroxy-phenyl)-ethyl]-methyl-carbamoyl}-propyl)-pyrrolidin-1-yl]-2-methoxy-4-oxo-butyl}-methyl-carbamoyl)-2-methyl-propyl]-2-dimethylamino-3-methyl-butyramide], the IC50 with HCT 116 (setting [2]) was 0.11 nM. For the same compound, the maximum tolerated dose (MTD) in data set [1] worked out at 8 mg/kg.

For the compound `CCC(C)C(C(CC(=O)N1CCCC1C(SC)C(C)C(=O)N(C)CCc1cccc(O)c1)OC)N(C)C(=O)C(NC(=O)C(C(C)C)N(C)C)C(C)C` (single isomer, unassigned) [N-[1-({1-sec-Butyl-4-[2-(2-{[2-(3-hydroxy-phenyl)-ethyl]-methyl-carbamoyl}-1-methylsulfanyl-propyl)-pyrrolidin-1-yl]-2-methoxy-4-oxo-butyl}-methyl-carbamoyl)-2-methyl-propyl]-2-dimethylamino-3-methyl-butyramide], the half-inhibitory concentration (IC50) with HCT 116 (setting [2]) was 0.66 nM. Besides, the MTD in data set [1] came out at 8 mg/kg.

Take `CCC(C)C(C(CC(=O)N1CCCC1C(CC(=O)NCCc1ccccc1)SC)OC)N(C)C(=O)C(NC(=O)C(NC)C(C)C)C(C)C` (stereo not drawn) [N-[1-({1-sec-Butyl-2-methoxy-4-[2-(1-methylsulfanyl-2-phenethylcarbamoylethyl)pyrrolidin-1-yl]-4-oxo-butyl}-methyl-carbamoyl)-2-methyl-propyl]-3-methyl-2-methylamino-butyramide]: the IC50 in the data set on HCT 116 (setting [2]) is 0.12 nM. Further, the MTD in data set [1] was found to be 14 mg/kg.

For `CCC(C)C(C(CC(=O)N1CCCC1C(CC(=O)NCCc1ccccc1)SC(C)C)OC)N(C)C(=O)C(NC(=O)C(NC)C(C)C)C(C)C` (stereo not drawn) [N-[1-({1-sec-Butyl-4-[2-(1-isopropylsulfanyl-2-phenethylcarbamoyl-ethyl)-pyrrolidin-1-yl]-2-methoxy-4-oxo-butyl}-methyl-carbamoyl)-2-methyl-propyl]-3-methyl-2-methylamino-butyramide], the concentration for half-maximal inhibition (IC50) in the data set with HCT 116 (setting [2]) was found to be 0.65 nM. In addition, the maximal tolerated dose (MTD) in data set [1] came to 10 mg/kg.

On to `CCC(C)C(C(CC(=O)N1CCCC1C(CC(=O)NCCc1ccccc1)S(C)(=O)=O)OC)N(C)C(=O)C(NC(=O)C(NC)C(C)C)C(C)C` (stereo not drawn) [N-[1-({1-sec-Butyl-4-[2-(1-methanesulfonyl-2-phenethylcarbamoyl-ethyl)-pyrrolidin-1-yl]-2-methoxy-4-oxo-butyl}-methyl-carbamoyl)-2-methyl-propyl]-3-methyl-2-methylamino-butyramide], for which the IC50 in the data set on HCT 116 (setting [2]) stood at 0.77 nM. Besides, in data set [1], the MTD was 18 mg/kg.

Turning to `CCC(C)C(C(CC(=O)N1CCCC1C(CC(=O)NCCc1cccnc1)SC)OC)N(C)C(=O)C(NC(=O)C(C(C)C)N(C)C)C(C)C` (stereo not drawn) [N-{1-[(1-sec-Butyl-2-methoxy-4-{2-[1-methylsulfanyl-2-(2-pyridin-3-yl-ethylcarbamoyl)-ethyl]-pyrrolidin-1-yl}-4-oxo-butyl)-methyl-carbamoyl]-2-methyl-propyl}-2-dimethylamino-3-methyl-butyramide], the IC50 in the data set on HCT 116 (setting [2]) worked out at 0.91 nM.

For `CCC(C)C(C(CC(=O)N1CCCC1C(CC(=O)NCCc1cccs1)SC)OC)N(C)C(=O)C(NC(=O)C(C(C)C)N(C)C)C(C)C` (stereo not drawn) [N-{1-[(1-sec-Butyl-2-methoxy-4-{2-[1-methylsulfanyl-2-(2-thiophen-2-yl-ethylcarbamoyl)-ethyl]-pyrrolidin-1-yl}-4-oxo-butyl)-methyl-carbamoyl]-2-methyl-propyl}-2-dimethylamino-3-methyl-butyramide], the 50% inhibitory concentration (IC50) in the data set on HCT 116 (setting [2]) worked out at 0.5 nM.

Consider `CCC(C)C(C(CC(=O)N1CCCC1C(CC(=O)N(C)CCc1ccccc1)SC)OC)N(C)C(=O)C(NC(=O)C(C(C)C)N(C)C)C(C)C` (stereo not drawn) [N-{1-[(1-sec-Butyl-2-methoxy-4-{2-[2-(methyl-phenethyl-carbamoyl)-1-methylsulfanyl-ethyl]-pyrrolidin-1-yl}-4-oxo-butyl)-methyl-carbamoyl]-2-methyl-propyl}-2-dimethylamino-3-methyl-butyramide], for which, in the data set on HCT 116 (setting [2]), the 50% inhibitory concentration (IC50) was found to be 0.87 nM.

Take `CCC(C)C(C(CC(=O)N1CCCC1C(CC(=O)NCCc1ccccc1)SCCO)OC)N(C)C(=O)C(NC(=O)C(C(C)C)N(C)C)C(C)C` (stereo not drawn) [N-{1-[(1-sec-Butyl-4-{2-[1-(2-hydroxy-ethylsulfanyl)-2-phenethylcarbamoyl-ethyl]-pyrrolidin-1-yl}-2-methoxy-4-oxo-butyl)-methyl-carbamoyl]-2-methyl-propyl}-2-dimethylamino-3-methyl-butyramide]: in the data set on HCT 116 (setting [2]), the IC50 came to 0.39 nM.

Regarding `CCC(C)C(C(CC(=O)N1CCCC1C(CC(=O)NCCc1ccccc1)Sc1cccc(O)c1)OC)N(C)C(=O)C(NC(=O)C(C(C)C)N(C)C)C(C)C` (stereo not drawn) [N-{1-[(1-sec-Butyl-4-{2-[1-(3-hydroxy-phenylsulfanyl)-2-phenethylcarbamoyl-ethyl]-pyrrolidin-1-yl}-2-methoxy-4-oxo-butyl)-methyl-carbamoyl]-2-methyl-propyl}-2-dimethylamino-3-methyl-butyramide], the IC50 in the data set with HCT 116 (setting [2]) amounted to 0.3 nM.

`CCC(C)C(C(CC(=O)N1CCCC1[C@@H](CC(=O)NCCc1ccccc1)Sc1ccc(O)cc1)OC)N(C)C(=O)C(NC(=O)C(C(C)C)N(C)C)C(C)C` (stereo partly drawn) [N-{1-[(1-sec-Butyl-4-{2-[1-(R)-(4-hydroxy-phenylsulfanyl)-2-phenethylcarbamoyl-ethyl]-pyrrolidin-1-yl}-2-methoxy-4-oxo-butyl)-methyl-carbamoyl]-2-methyl-propyl}-2-dimethylamino-3-methyl-butyramide]: the IC50 in the data set with HCT 116 (setting [2]) amounted to 0.6 nM.

As to `CCC(C)C(C(CC(=O)N1CCCC1C(CC(=O)NCCc1ccccc1)Sc1ccc(NC(C)=O)cc1)OC)N(C)C(=O)C(NC(=O)C(C(C)C)N(C)C)C(C)C` (stereo not drawn) [N-{1-[(4-{2-[1-(4-Acetylamino-phenylsulfanyl)-2-phenethylcarbamoyl-ethyl]-pyrrolidin-1-yl}-1-sec-butyl-2-methoxy-4-oxo-butyl)-methyl-carbamoyl]-2-methyl-propyl}-2-dimethylamino-3-methyl-butyramide], the IC50 in the data set with HCT 116 (setting [2]) was found to be 0.98 nM.

The values above are taken from patent US6737409B2, “Dolastatin 10 derivatives” (Hoffmann-La Roche Inc., priority 2001, dated 2004).
